Values after ≈ are worked out from the molar mass of the structure shown.
Tests used:
Assay type in all cases: cell-based
[1] = test system: Haemophilus influenzae 1177; experiment: In vitro antibacterial activity, agar dilution MIC; settings: H. influenzae 1177
Procedure: (§1) The antimicrobial spectra of a number of compounds of the invention were tested by the following method:
(§2) Twelve petri dishes containing successive aqueous dilutions of the test compound mixed with 10 ml of sterilized Brain Heart Infusion agar (Difco 0418-01-5) are prepared. Each plate is inoculated with 1:100 (or 1:10 for slow growing strains, primarily Micrococcus and Streptococcus) dilutions of up to 32 different microorganisms, using a Steers replicator block The inoculated plates are incubated at 35°-37° C. for 20-24 hours. In addition, a control plate, using BHI agar containing no test compound, is prepared and incubated at the beginning and end of each test.
(§3) An additional plate containing a compound having known susceptibility patterns for the organisms being tested and belonging to the same antibiotic class as the test compound is also prepared and incubated as a further control, as well as to provide test-to-test comparability. Erythromycin A was used for this purpose.
(§4) After incubation, each disk is read. The MIC is defined as the lowest concentration of drug yielding no growth, a slight haze, or sparsely isolated colonies on the inoculum spot as compared to the growth control.

[2] = test system: Haemophilus influenzae 667A; experiment: In vitro antibacterial activity, agar dilution MIC; settings: H. influenzae 667A
Procedure: as §1, §2, §3, §4

[3] = test system: Haemophilus influenzae DILL AMP R; experiment: In vitro antibacterial activity, agar dilution MIC; settings: H. influenzae DILL AMP R
Procedure: as §1, §2, §3, §4

[4] = test system: Haemophilus influenzae 503B; experiment: In vitro antibacterial activity, agar dilution MIC; settings: H. influenzae 503B
Procedure: as §1, §2, §3, §4

[5] = test system: Haemophilus influenzae 588A; experiment: In vitro antibacterial activity, agar dilution MIC; settings: H. influenzae 588A
Procedure: as §1, §2, §3, §4

[6] = test system: Haemophilus influenzae 751; experiment: In vitro antibacterial activity, agar dilution MIC; settings: H. influenzae 751
Procedure: as §1, §2, §3, §4

[7] = test system: Haemophilus influenzae 566A; experiment: In vitro antibacterial activity, agar dilution MIC; settings: H. influenzae 566A
Procedure: as §1, §2, §3, §4

[8] = test system: Haemophilus influenzae SPK AMP R; experiment: In vitro antibacterial activity, agar dilution MIC; settings: H. influenzae SPK AMP R
Procedure: as §1, §2, §3, §4

[9] = test system: Haemophilus influenzae 504; experiment: In vitro antibacterial activity, agar dilution MIC; settings: H. influenzae 504
Procedure: as §1, §2, §3, §4

[10] = test system: Haemophilus influenzae 747C; experiment: In vitro antibacterial activity, agar dilution MIC; settings: H. influenzae 747C
Procedure: as §1, §2, §3, §4

[11] = test system: Haemophilus influenzae 519A; experiment: In vitro antibacterial activity, agar dilution MIC; settings: H. influenzae 519A
Procedure: as §1, §2, §3, §4

[12] = test system: Haemophilus influenzae 1435; experiment: In vitro antibacterial activity, agar dilution MIC; settings: H. influenzae 1435
Procedure: as §1, §2, §3, §4

[13] = test system: Haemophilus influenzae ATCC 9795; experiment: In vitro antibacterial activity, agar dilution MIC; settings: ATCC9795, H. influenzae ATCC 9795
Procedure: as §1, §2, §3, §4

[14] = test system: Haemophilus influenzae 632A; experiment: In vitro antibacterial activity, agar dilution MIC; settings: H. influenzae 632A
Procedure: as §1, §2, §3, §4

[15] = test system: Haemophilus influenzae SOL AMP R; experiment: In vitro antibacterial activity, agar dilution MIC; settings: H. influenzae SOL AMP R
Procedure: as §1, §2, §3, §4

[16] = test system: Haemophilus influenzae ATCC 19418; experiment: In vitro antibacterial activity, agar dilution MIC; settings: ATCC19418, H. influenzae ATCC 19418
Procedure: as §1, §2, §3, §4

[17] = test system: Haemophilus influenzae ATCC 10211; experiment: In vitro antibacterial activity, agar dilution MIC; settings: ATCC10211, H. influenzae ATCC 10211
Procedure: as §1, §2, §3, §4

[18] = test system: Staphylococcus aureus 642A; experiment: In vitro antibacterial activity, agar dilution MIC; settings: S. aureus 642A, Brain Heart Infusion agar, 20-24 hours, read-out: MIC
Procedure: as §1, §2, §3, §4

[19] = test system: Staphylococcus aureus NCTC 10649; experiment: In vitro antibacterial activity, agar dilution MIC; settings: NCTC10649, S. aureus NCTC 10649, Brain Heart Infusion agar, 20-24 hours, read-out: MIC
Procedure: as §1, §2, §3, §4

[20] = test system: Escherichia coli Juhl; experiment: In vitro antibacterial activity, agar dilution MIC
Procedure: as §1, §2, §3, §4

[21] = test system: Streptococcus pyogenes 2548 INDUC; experiment: In vitro antibacterial activity, agar dilution MIC; settings: S. pyogenes 2548 INDUC, Brain Heart Infusion agar, 20-24 hours, read-out: MIC
Procedure: as §1, §2, §3, §4

[22] = test system: Staphylococcus aureus ATCC 6538P; experiment: In vitro antibacterial activity, agar dilution MIC; settings: ATCC6538P
Procedure: as §1, §2, §3, §4

[23] = test system: Streptococcus pyogenes EES61; experiment: In vitro antibacterial activity, agar dilution MIC; settings: S. pyogenes EES61, Brain Heart Infusion agar, 20-24 hours, read-out: MIC
Procedure: as §1, §2, §3, §4

[24] = test system: Escherichia coli H560; experiment: In vitro antibacterial activity, agar dilution MIC; settings: E. coli H560, Brain Heart Infusion agar, 20-24 hours, read-out: MIC
Procedure: as §1, §2, §3, §4

[25] = test system: Staphylococcus aureus A5177; experiment: In vitro antibacterial activity, agar dilution MIC; settings: S. aureus A5177, Brain Heart Infusion agar, 20-24 hours, read-out: MIC
Procedure: as §1, §2, §3, §4

[26] = test system: Staphylococcus aureus CMX 553; experiment: In vitro antibacterial activity, agar dilution MIC; settings: CMX553, S. aureus CMX 553, Brain Heart Infusion agar, 20-24 hours, read-out: MIC
Procedure: as §1, §2, §3, §4

[27] = test system: Streptococcus pyogenes 930 CONST; experiment: In vitro antibacterial activity, agar dilution MIC; settings: 930CONST
Procedure: as §1, §2, §3, §4

[28] = test system: Escherichia coli SS; experiment: In vitro antibacterial activity, agar dilution MIC; settings: read-out: MIC
Procedure: as §1, §2, §3, §4

[29] = test system: Staphylococcus aureus 45; experiment: In vitro antibacterial activity, agar dilution MIC; settings: S. aureus 45, Brain Heart Infusion agar, 20-24 hours, read-out: MIC
Procedure: as §1, §2, §3, §4

[30] = test system: Streptococcus bovis A5169; experiment: In vitro antibacterial activity, agar dilution MIC; settings: S. bovis A5169; Brain Heart Infusion agar, 20-24 hours; read-out: MIC
Procedure: as §1, §2, §3, §4

[31] = test system: Streptococcus agalactiae CMX 508; experiment: In vitro antibacterial activity, agar dilution MIC; settings: CMX508, S. agalactiae CMX 508, Brain Heart Infusion agar, 20-24 hours, read-out: MIC
Procedure: as §1, §2, §3, §4

[32] = test system: Staphylococcus epidermidis 3519; experiment: In vitro antibacterial activity, agar dilution MIC; settings: S. epidermidis 3519, Brain Heart Infusion agar, 20-24 hours, read-out: MIC
Procedure: as §1, §2, §3, §4

[33] = test system: Enterococcus faecium ATCC 8043; experiment: In vitro antibacterial activity, agar dilution MIC; settings: ATCC8043
Procedure: as §1, §2, §3, §4

[34] = test system: Micrococcus luteus ATCC 4698; experiment: In vitro antibacterial activity, agar dilution MIC; settings: ATCC4698, read-out: MIC
Procedure: as §1, §2, §3, §4

[35] = test system: Micrococcus luteus ATCC 9341; experiment: In vitro antibacterial activity, agar dilution MIC; settings: ATCC9341, M. luteus ATCC 9341, Brain Heart Infusion agar, 20-24 hours, read-out: MIC
Procedure: as §1, §2, §3, §4

[36] = test system: Escherichia coli DC-2; experiment: In vitro antibacterial activity, agar dilution MIC; settings: DC2
Procedure: as §1, §2, §3, §4

[37] = test system: Staphylococcus aureus 45 RAR 2; experiment: microbe, parasite or virus in culture; settings: 45RAR2
Procedure: as §1, §2, §3, §4

SMILES	MIC [1] [µg/mL]	MIC [2] [µg/mL]	MIC [3] [µg/mL]	MIC [4] [µg/mL]	MIC [5] [µg/mL]	MIC [6] [µg/mL]	MIC [7] [µg/mL]	MIC [8] [µg/mL]	MIC [9] [µg/mL]	MIC [10] [µg/mL]	MIC [11] [µg/mL]	MIC [12] [µg/mL]	MIC [13] [µg/mL]	MIC [14] [µg/mL]	MIC [15] [µg/mL]	MIC [16] [µg/mL]	MIC [17] [µg/mL]	also measured
CC[C@H]1OC(=O)[C@H](C)[C@@H](O[C@H]2C[C@@](C)(OC)[C@@H](O)[C@H](C)O2)[C@H](C)[C@@H](O[C@@H]2O[C@H](C)C[C@H](N(C)C)[C@H]2O)[C@](C)(O)C[C@@H](C)[C@@H](N2CCC(OC)(OC)CC2)[C@H](C)[C@@H](O)[C@]1(C)O [Example 27]	0.06 (≈ 0.0695 µM)	1 (≈ 1.16 µM)	0.5 (≈ 0.579 µM)	1 (≈ 1.16 µM)	1 (≈ 1.16 µM)	2 (≈ 2.32 µM)	1 (≈ 1.16 µM)	1 (≈ 1.16 µM)	1 (≈ 1.16 µM)	1 (≈ 1.16 µM)	0.25 (≈ 0.29 µM)	0.25 (≈ 0.29 µM)	1 (≈ 1.16 µM)	1 (≈ 1.16 µM)	1 (≈ 1.16 µM)	1 (≈ 1.16 µM)	0.5 (≈ 0.579 µM)	–
CC[C@H]1OC(=O)[C@H](C)[C@@H](O[C@H]2C[C@@](C)(OC)[C@@H](O)[C@H](C)O2)[C@H](C)[C@@H](O[C@@H]2O[C@H](C)C[C@H](N(C)C)[C@H]2O)[C@](C)(O)C[C@@H](C)[C@@H](N2CCC(C)(C)CC2)[C@H](C)[C@@H](O)[C@]1(C)O [Example 7]	0.25 (≈ 0.301 µM)	1 (≈ 1.2 µM)	1 (≈ 1.2 µM)	1 (≈ 1.2 µM)	1 (≈ 1.2 µM)	1 (≈ 1.2 µM)	2 (≈ 2.41 µM)	1 (≈ 1.2 µM)	1 (≈ 1.2 µM)	1 (≈ 1.2 µM)	0.5 (≈ 0.602 µM)	0.5 (≈ 0.602 µM)	1 (≈ 1.2 µM)	1 (≈ 1.2 µM)	0.5 (≈ 0.602 µM)	2 (≈ 2.41 µM)	1 (≈ 1.2 µM)	MIC [18]: 0.39 µg/mL (≈ 0.469 µM); MIC [19]: 0.39 µg/mL (≈ 0.469 µM); MIC [20]: 12.5 µg/mL (≈ 15 µM); MIC [21]: 6.2 µg/mL (≈ 7.46 µM); MIC [22]: 0.39 µg/mL (≈ 0.469 µM); MIC [23]: 0.1 µg/mL (≈ 0.12 µM); MIC [24]: 3.1 µg/mL (≈ 3.73 µM); MIC [25]: 3.1 µg/mL (≈ 3.73 µM); MIC [26]: 0.39 µg/mL (≈ 0.469 µM); MIC [27]: > 100 µg/mL; MIC [28]: 0.2 µg/mL (≈ 0.241 µM); MIC [29]: 0.2 µg/mL (≈ 0.241 µM); MIC [30]: ≤ 0.05 µg/mL; MIC [31]: ≤ 0.05 µg/mL; MIC [32]: 0.39 µg/mL (≈ 0.469 µM); MIC [33]: 0.1 µg/mL (≈ 0.12 µM); MIC [34]: 0.2 µg/mL (≈ 0.241 µM); MIC [35]: ≤ 0.05 µg/mL; MIC [36]: 12.5 µg/mL (≈ 15 µM); MIC [37]: 0.39 µg/mL (≈ 0.469 µM)

From patent publication US5075289A, “9-R-azacyclic erythromycin antibiotics” (priority 1988, dated 1991)
